Laboratory results as given in ChEMBL document CHEMBL4007502, “Cytotoxic dammarane-type triterpenoids from the leaves of Viburnum sambucinum” (Bioorg Med Chem Lett, 2017).

Columns and labels:
Format in all cases: functional, cell-based
[1] = system: KB; assay: Cytotoxicity against human KB cells assessed as growth inhibition after 72 hrs by neutral red assay
[2] = system: MCF7; assay: Cytotoxicity against human MCF7 cells assessed as growth inhibition after 72 hrs by neutral red assay; conditions: MCF7, 72 h
[3] = system: Lu1; assay: Cytotoxicity against human Lu1 cells assessed as growth inhibition after 72 hrs by neutral red assay; conditions: Lu1, 72 h
[4] = system: HepG2; assay: Cytotoxicity against human HepG2 cells assessed as growth inhibition after 72 hrs by neutral red assay; conditions: HepG2, 72 h

| SMILES | IC50 [1] | IC50 [2] | IC50 [3] | IC50 [4] |
| --- | --- | --- | --- | --- |
| CO[C@@H]1CC(=O)[C@]2(C)[C@@H]1[C@H](O)C[C@@H]1[C@@]3(C)CC[C@H](O)C(C)(C)[C@@H]3CC[C@]12C | 78 µM | 79.7 µM | 80.7 µM | 82 µM |
| CC1(C)[C@@H](O)CC[C@]2(C)[C@H]3C[C@@H](O)[C@@H]4C=CC(=O)[C@@]4(C)[C@]3(C)CC[C@@H]12 | 5.2 µM | 5 µM | 5.2 µM | 5.1 µM |
| C/C(=C\CO)CCCC(C)CCCC(C)CCCC(C)C (stereo not drawn) | > 100 µM | > 100 µM | > 100 µM | > 100 µM |
| C/C(=C\CC[C@](C)(O)[C@H]1CC[C@]2(C)[C@@H]1CC[C@@H]1[C@@]3(C)CCC(=O)C(C)(C)[C@@H]3CC[C@]12C)C(=O)O | > 100 µM | > 100 µM | > 100 µM | > 100 µM |
| CC1(C)[C@@H](O)CC[C@]2(C)[C@H]3C[C@@H](O)[C@@H]4[C@H](O)CC(=O)[C@@]4(C)[C@]3(C)CC[C@@H]12 | > 100 µM | > 100 µM | > 100 µM | > 100 µM |
| CC1(C)C(=O)CC[C@]2(C)[C@H]3C[C@@H](O)[C@@H]4C=CC(=O)[C@@]4(C)[C@]3(C)CC[C@@H]12 | 5 µM | 4.7 µM | 5.1 µM | 5.3 µM |
| C=C(C)[C@@H]1CC[C@@]2(C)[C@H]1[C@H]1CC[C@@H]3[C@@]4(C)CCC(=O)C(C)(C)[C@@H]4CC[C@@]3(C)[C@]1(C)C[C@@H]2O | 30.5 µM | 48 µM | 61.5 µM | 50.4 µM |
| C/C(=C\CC[C@](C)(O)[C@@H]1[C@H]2CC[C@@H]3[C@@]4(C)CCC(=O)C(C)(C)[C@@H]4CC[C@@]3(C)[C@]2(C)C[C@@H]1O)C(=O)O | > 100 µM | > 100 µM | > 100 µM | > 100 µM |
| CC1(C)C(=O)CC[C@]2(C)[C@H]3C[C@@H](O)[C@@H]4[C@H](O)CC(=O)[C@@]4(C)[C@]3(C)CC[C@@H]12 | > 100 µM | 4.3 µM | 5.8 µM | 5.7 µM |
| C[C@H]1[C@H](C)CC[C@]2(C)CC[C@]3(C)C(=CC[C@@H]4[C@@]5(C)CC[C@H](O)C(C)(C)[C@@H]5CC[C@]43C)[C@H]12 | > 100 µM | > 100 µM | > 100 µM | > 100 µM |
| COc1c(-c2ccc(O)cc2)oc2cc(O)cc(O)c2c1=O [ISOKAEMPFERIDE] | 64.8 µM | 55.4 µM | 60.1 µM | 62.5 µM |
| O=c1cc(-c2ccc(O)c(O)c2)oc2cc(O)cc(O)c12 [LUTEOLIN] | 45.3 µM | 44.4 µM | 40.8 µM | 47.3 µM |
| CC1(C)CC[C@]2(C(=O)O)CC[C@]3(C)C(=CC[C@@H]4[C@@]5(C)C[C@@H](O)[C@H](O)C(C)(C)[C@@H]5CC[C@]43C)[C@@H]2C1 [MASLINIC ACID] | > 100 µM | > 100 µM | > 100 µM | > 100 µM |
| CC1(C)CC[C@]2(C(=O)O)CC[C@]3(C)C(=CC[C@@H]4[C@@]5(C)CC[C@H](O)C(C)(C)[C@@H]5CC[C@]43C)[C@@H]2C1 [OLEANOLIC_ACID] | > 100 µM | > 100 µM | > 100 µM | > 100 µM |
| C[C@H]1[C@H](C)CC[C@]2(C(=O)O)CC[C@]3(C)C(=CC[C@@H]4[C@@]5(C)CC[C@H](O)C(C)(C)[C@@H]5CC[C@]43C)[C@H]12 [URSOLIC ACID] |  | 9.3 µM | 11.5 µM | 40.2 µM |
| C[C@H]1[C@H](C)CC[C@]2(CO)CC[C@]3(C)C(=CC[C@@H]4[C@@]5(C)CC[C@H](O)C(C)(C)[C@@H]5CC[C@]43C)[C@H]12 [UVAOL] | 37.7 µM | 58.2 µM | 53.3 µM | 53.7 µM |
